Assay results from article PMC8208785, “Therapeutic efficacy of novel memantine nitrate MN‐08 in animal models of Alzheimer’s disease” (Aging Cell, 2021).
Where two headings read alike, the source gives them in different places.

Key:
[1] = tested on: NMDA receptors (NMDA‐activated current in rat hippocampal neurons); assay: whole-cell patch-clamp recording of NMDA-activated current in primary hippocampal neurons; format: cell-based
3×Tg‐AD mice = assay: Aβ ELISA and Western blotting of APP-processing proteins in 3×Tg-AD mice; format: in vivo
Experimental: Triple transgenic 3×Tg‐AD mice were acquired from Jackson Laboratory and fostered in the Shenzhen Center for Disease Control and Prevention (Shenzhen, China). Eight‐month‐old 3×Tg‐AD mice were categorized into six groups: (1) 3×Tg‐AD +Vehicle group; (2) 3×Tg‐AD +MN‐08 (3 mg/kg) group; (3) 3×Tg‐AD +MN‐08 (6 mg/kg) group; (4) 3×Tg‐AD +MN‐08 (12 mg/kg) group; (5) 3×Tg‐AD +Memantine (Mem, 5 mg/kg) group; (6) 3×Tg‐AD +Donepezil (Done, 1.3 mg/kg, once daily) group; (7) Eight‐month‐old B6129SF2/J mice as a control group. MN‐08 and memantine were given twice daily (Done, once daily) by gastric gavage for 4 months from 8 months of age.
To evaluate the concentration of soluble and insoluble Aβ in AD mice, the hippocampus and cortex were homogenized in the lysate, which was then centrifuged at 12000 g for 30 min at 4°C. Supernatant samples were collected as soluble Aβ. Sediment of the cortex and hippocampus was resuspended with formic acid, incubated on ice for 60 min and then centrifuged at 12,000 g for 30 min at 4°C. The supernatant and Tris/NaH2PO4 buffer were mixed as insoluble Aβ. The concentration of Aβ was analyzed by ELISA kit of human amyloid β (R&D Systems, Minneapolis, MN, USA) following the manufacturer’s instructions.
Western blotting analysis was performed as previously described with minor modifications (Huang, Li, & Nan, 2017). Proteins were extracted from hippocampal tissue and their concentrations determined by the BCA protein assay kit (Fdbio science, Hangzhou, China). The protein (20 μg) was separated on a 12% SDS-PAGE gel and then transferred to PVDF membranes. The membranes were blocked using 5 % nonfat dry milk for 2 h. The protein blots were incubated with the corresponding primary antibodies against p-Akt (#4060, 1:1000, Cell Signaling Technology), Akt (#4685, 1:1000, Cell Signaling Technology), BACE1 (#5606, 1:1000, Cell Signaling Technology), PS1 (#5643, 1:1000, Cell Signaling Technology), p-GSK3β (#5558, 1:1000, Cell Signaling Technology), GSK3β (#12456, 1:1000, Cell Signaling Technology), Bcl-2 (#3498, 1:1000, Cell Signaling Technology), Bax (#5023, 1:1000, Cell Signaling Technology), Cleaved caspase-3 (#9661, 1:1000, Cell Signaling Technology), Caspase-3 (#9662, 1:1000, Cell Signaling Technology), ADAM10 (#14194, 1:1000, Cell Signaling Technology), APP (#ab241592, 1:1000, Abcam), sAPPα (#ab126723, 1:1000, Abcam), NEP (#ab216341, 1:1000, Abcam), Synapsin I (#ab64581, 1:1000, Abcam), Synapsin II (#ab76494, 1:1000, Abcam), NR2A (#ab124913, 1:2000, Abcam), PSD95 (#ab18258, 1:1000, Abcam), Synaptophysin (#ab32127, 1:1000, Abcam), IDE (#ab133561, 1:1000, Abcam), Drebin (#ab178408, 1:1000, Abcam) and Tau-5 (#ab80579, 1:2000, Abcam) overnight at 4°C. After washing 3 times, the membranes were incubated with the respective HRP-conjugated secondary antibody. ECL Western blotting Detection Reagents (Fdbio science, Hangzhou, China) were used to perform Chemiluminescence detection. Quantitative analysis of protein bands was conducted by the Carestream system (Carestream Health, Inc, USA).

[2] = pharmacokinetic analysis of MN-08 in rats; format: in vivo; settings: both sexes, rat, plasma, po; for Cmax: read-out: Cmax, peak concentration; for half-life: read-out: T1/2, mean terminal half-life (converted); for Tmax: read-out: Tmax, mean time to peak
Experimental: Healthy adult rats were cannulated under anesthesia one day before dosing, then randomly categorized into 3 groups (3 males and 3 females for each group): (1) MN-08 (3 mg/kg) group; (2) MN-08 (12 mg/kg) group; (3) MN-08 (24 mg/kg) group. Following single administration of MN-08 by gastric gavage, plasma samples (approximately 150 μL) were collected at different time points (Pre-dose and 0.25, 0.5, 1, 2, 4, 8, 12, 24 h after dose). The blood samples were placed in heparinized tubes and centrifuged at 3000 rpm for 10 min. The supernatant plasma was stored at -80°C until analysis. The concentration of MN-08 in blood samples was analyzed by the LC-MS/MS method as previously described (Tian et al., 2016).

normal rats = tested on: normal rats; set-up: method as in Luo et al., 2019; settings: ref Luo et al., 2019; cited from earlier work
intact narcotized rats = tested on: intact narcotized rats; set-up: method as in Mirzoyan et al., 2014; settings: intact narcotized rats and animals with global transient ischemia; ref Mirzoyan et al., 2014; cited from earlier work
[3] = MN‐08 6 mg/kg, hippocampi, Western blot
[4] = single intragastric dose 3 mg/kg
[5] = single intragastric dose 12 mg/kg
[6] = single intragastric dose 24 mg/kg

## CCC12CC3CC(N)(C1)CC(CO[N+](=O)[O-])(C3)C2 (centres unmarked) [MN‐08]
[1]
  IC50 on NMDA‐mediated current compared with memantine: slightly high than memantine
[1]; MN‐08 1–30 µM, whole‐cell patch‐clamp
  NMDA‐activated current: inhibited
[1]; NMDA 30 µM, −50 mV
  NMDA‐activated current after washout of the compound (off‐rate): recovered rapidly
[1]; holding potential −50 mV, NMDA 30 μM, rat hippocampal neurons, read-out: IC50 on the inhibition of NMDA‐mediated current
  IC50: 7.32 ± 0.23 µM
3×Tg‐AD mice; MN‐08 6 mg/kg, hippocampal and cortical areas
  Aβ accumulation (ELISA): significant reduction
3×Tg‐AD mice; [3]
  expression of total APP: significantly decreased
  expression of α‐secretase (ADAM10) and neprilysin (NEP): enhanced
  levels of sAPPα: increasing
3×Tg‐AD mice; hippocampi, Western blot
  expression of IDE, PS1, or BACE1: no effect
[2]; [4]
  Cmax: 97.5 ng/mL
  half-life: 5.26 h
  Tmax: 1.08 h
[2]; [5]
  Cmax: 399 ng/mL
  half-life: 6.81 h
  Tmax: 1.83 h
[2]; [6]
  Cmax: 674 ng/mL
  half-life: 6.82 h
  Tmax: 4 h
Normal rats
  blood pressure: does not, however, change

## CC12CC3CC(C)(C1)CC(N)(C3)C2 [memantine, 1‐amino‐3,5‐dimethyladamantane]
Intact narcotized rats
  local cerebral blood flow (CBF) in the brain cortices: reduce
